Laboratory results reported in ChEMBL document CHEMBL2074202, “Biliary excretion of pravastatin in rats: contribution of the excretion pathway mediated by canalicular multispecific organic anion transporter” (Drug Metab Dispos, 1997).

Assays:
[1] = target: ATP-binding cassette sub-family C member 2 (Rattus norvegicus, UniProt Q63120); test: TP_TRANSPORTER: inhibition of DNP-SG uptake in bile canalicular membrane vesicles from SD rat; type: functional, cell membranes, Sprague-Dawley, Bile canalicular membrane vesicle
[2] = substrate: CC[C@H](C)C(=O)O[C@H]1C[C@H](O)C=C2C=C[C@H](C)[C@H](CC[C@@H](O)C[C@@H](O)CC(=O)O)[C@H]21; test: TP_TRANSPORTER: uptake in bile canalicular membrane vesicles from SD rat; type: functional, cell membranes, Sprague-Dawley, Bile canalicular membrane vesicle

| Ki [1] [µM] | Molecule | Km [2] [µM] |
| --- | --- | --- |
| 172 | CC[C@H](C)C(=O)O[C@H]1C[C@H](O)C=C2C=C[C@H](C)[C@H](CC[C@@H](O)C[C@@H](O)CC(=O)O)[C@H]21 [PRAVASTATIN] | – |
| – | ATP-binding cassette sub-family C member 2 (Rattus norvegicus) (protein) MDKFCNSTFWDLSLLESPEADLPLCFEQTVLVWIPLGFLWLLAPWQLYSVYRSRTKRSSITKFYLAKQVFVVFLLILAAIDLSLALTEDTGQATVPPVRYTNPILYLCTWLLVLAVQHSRQWCVRKNSWFLSLFWILSVLCGVFQFQTLIRALLKDSKSNMAYSYLFFVSYGFQIVLLILTAFSGPSDSTQTPSVTASFLSSITFSWYDRTVLKGYKHPLTLEDVWDIDEGFKTRSVTSKFEAAMTKDLQKARQAFQRRLQKSQRKPEATLHGLNKKQSQSQDVLVLEEAKKKSEKTTKDYPKSWLIKSLFKTFHVVILKSFILKLIHDLLVFLNPQLLKLLIGFVKSSNSYVWFGYICAILMFAVTLIQSFCLQSYFQHCFVLGMCVRTTVMSSIYKKALTLSNLARKQYTIGETVNLMSVDSQKLMDATNYMQLVWSSVIQITLSIFFLWRELGPSILAGVGVMVLLIPVNGVLATKIRNIQVQNMKNKDKRLKIMNEILSGIKILKYFAWEPSFQEQVQGIRKKELKNLLRFGQLQSLLIFILQITPILVSVVTFSVYVLVDSANVLNAEKAFTSITLFNILRFPLSMLPMVTSSILQASVSVDRLERYLGGDDLDTSAIRRVSNFDKAVKFSEASFTWDPDLEATIQDVNLDIKPGQLVAVVGTVGSGKSSLVSAMLGEMENVHGHITIQGSTAYVPQQSWIQNGTIKDNILFGSEYNEKKYQQVLKACALLPDLEILPGGDMAEIGEKGINLSGGQKQRVSLARAAYQDADIYILDDPLSAVDAHVGKHIFNKVVGPNGLLAGKTRIFVTHGIHFLPQVDEIVVLGKGTILEKGSYRDLLDKKGVFARNWKTFMKHSGPEGEATVNNDSEAEDDDDGLIPTMEEIPEDAASLAMRRENSLRRTLSRSSRSSSRRGKSLKNSLKIKNVNVLKEKEKEVEGQKLIKKEFVETGKVKFSIYLKYLQAVGWWSILFIILFYGLNNVAFIGSNLWLSAWTSDSDNLNGTNNSSSHRDMRIGVFGALGLAQGICLLISTLWSIYACRNASKALHGQLLTNILRAPMRFFDTTPTGRIVNRFSGDISTVDDLLPQTLRSWMMCFFGIAGTLVMICMATPVFAIIIIPLSILYISVQVFYVATSRQLRRLDSVTKSPIYSHFSETVTGLPIIRAFEHQQRFLAWNEKQIDINQKCVFSWITSNRWLAIRLELVGNLVVFCSALLLVIYRKTLTGDVVGFVLSNALNITQTLNWLVRMTSEAETNIVAVERISEYINVENEAPWVTDKRPPADWPRHGEIQFNNYQVRYRPELDLVLKGITCNIKSGEKVGVVGRTGAGKSSLTNCLFRILESAGGQIIIDGIDVASIGLHDLRERLTIIPQDPILFSGSLRMNLDPFNKYSDEEVWRALELAHLRSFVSGLQLGLLSEVTEGGDNLSIGQRQLLCLGRAVLRKSKILVLDEATAAVDLETDSLIQTTIRKEFSQCTVITIAHRLHTIMDSDKIMVLDNGKIVEYGSPEELLSNRGSFYLMAKEAGIENVNHTEL | 223 |
